# Biological target: T1, recombinant human baculovirus-expressed GST-tagged FASN (Homo sapiens, UniProt P49327)
# T1 construct: GST; host or cells: baculovirus expression system (insect cells implied)
# Experiment: FASN enzyme activity assay: fluorescence-based detection of CoA with CPM
# Format: biochemical
# Details: 5 nM FASN, 150 μM NADPH, 10 μM acetyl-CoA, 25 μM malonyl-CoA, 90 minutes incubation
# Procedure, shortened: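 GST-tagged human FASN (5 nM, baculovirus-expressed) in 50 mM HEPES pH 7.5 with 150 μM NADPH, 10 μM acetyl-CoA and 25 μM malonyl-CoA, 0.5% DMSO, started with malonyl-CoA and run 90 min. CoA was detected with CPM (30 min; ex 390/em 530 nm). IC50 came from sigmoidal variable-slope fits of % inhibition.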
# T1 sequence (P49327 whole entry): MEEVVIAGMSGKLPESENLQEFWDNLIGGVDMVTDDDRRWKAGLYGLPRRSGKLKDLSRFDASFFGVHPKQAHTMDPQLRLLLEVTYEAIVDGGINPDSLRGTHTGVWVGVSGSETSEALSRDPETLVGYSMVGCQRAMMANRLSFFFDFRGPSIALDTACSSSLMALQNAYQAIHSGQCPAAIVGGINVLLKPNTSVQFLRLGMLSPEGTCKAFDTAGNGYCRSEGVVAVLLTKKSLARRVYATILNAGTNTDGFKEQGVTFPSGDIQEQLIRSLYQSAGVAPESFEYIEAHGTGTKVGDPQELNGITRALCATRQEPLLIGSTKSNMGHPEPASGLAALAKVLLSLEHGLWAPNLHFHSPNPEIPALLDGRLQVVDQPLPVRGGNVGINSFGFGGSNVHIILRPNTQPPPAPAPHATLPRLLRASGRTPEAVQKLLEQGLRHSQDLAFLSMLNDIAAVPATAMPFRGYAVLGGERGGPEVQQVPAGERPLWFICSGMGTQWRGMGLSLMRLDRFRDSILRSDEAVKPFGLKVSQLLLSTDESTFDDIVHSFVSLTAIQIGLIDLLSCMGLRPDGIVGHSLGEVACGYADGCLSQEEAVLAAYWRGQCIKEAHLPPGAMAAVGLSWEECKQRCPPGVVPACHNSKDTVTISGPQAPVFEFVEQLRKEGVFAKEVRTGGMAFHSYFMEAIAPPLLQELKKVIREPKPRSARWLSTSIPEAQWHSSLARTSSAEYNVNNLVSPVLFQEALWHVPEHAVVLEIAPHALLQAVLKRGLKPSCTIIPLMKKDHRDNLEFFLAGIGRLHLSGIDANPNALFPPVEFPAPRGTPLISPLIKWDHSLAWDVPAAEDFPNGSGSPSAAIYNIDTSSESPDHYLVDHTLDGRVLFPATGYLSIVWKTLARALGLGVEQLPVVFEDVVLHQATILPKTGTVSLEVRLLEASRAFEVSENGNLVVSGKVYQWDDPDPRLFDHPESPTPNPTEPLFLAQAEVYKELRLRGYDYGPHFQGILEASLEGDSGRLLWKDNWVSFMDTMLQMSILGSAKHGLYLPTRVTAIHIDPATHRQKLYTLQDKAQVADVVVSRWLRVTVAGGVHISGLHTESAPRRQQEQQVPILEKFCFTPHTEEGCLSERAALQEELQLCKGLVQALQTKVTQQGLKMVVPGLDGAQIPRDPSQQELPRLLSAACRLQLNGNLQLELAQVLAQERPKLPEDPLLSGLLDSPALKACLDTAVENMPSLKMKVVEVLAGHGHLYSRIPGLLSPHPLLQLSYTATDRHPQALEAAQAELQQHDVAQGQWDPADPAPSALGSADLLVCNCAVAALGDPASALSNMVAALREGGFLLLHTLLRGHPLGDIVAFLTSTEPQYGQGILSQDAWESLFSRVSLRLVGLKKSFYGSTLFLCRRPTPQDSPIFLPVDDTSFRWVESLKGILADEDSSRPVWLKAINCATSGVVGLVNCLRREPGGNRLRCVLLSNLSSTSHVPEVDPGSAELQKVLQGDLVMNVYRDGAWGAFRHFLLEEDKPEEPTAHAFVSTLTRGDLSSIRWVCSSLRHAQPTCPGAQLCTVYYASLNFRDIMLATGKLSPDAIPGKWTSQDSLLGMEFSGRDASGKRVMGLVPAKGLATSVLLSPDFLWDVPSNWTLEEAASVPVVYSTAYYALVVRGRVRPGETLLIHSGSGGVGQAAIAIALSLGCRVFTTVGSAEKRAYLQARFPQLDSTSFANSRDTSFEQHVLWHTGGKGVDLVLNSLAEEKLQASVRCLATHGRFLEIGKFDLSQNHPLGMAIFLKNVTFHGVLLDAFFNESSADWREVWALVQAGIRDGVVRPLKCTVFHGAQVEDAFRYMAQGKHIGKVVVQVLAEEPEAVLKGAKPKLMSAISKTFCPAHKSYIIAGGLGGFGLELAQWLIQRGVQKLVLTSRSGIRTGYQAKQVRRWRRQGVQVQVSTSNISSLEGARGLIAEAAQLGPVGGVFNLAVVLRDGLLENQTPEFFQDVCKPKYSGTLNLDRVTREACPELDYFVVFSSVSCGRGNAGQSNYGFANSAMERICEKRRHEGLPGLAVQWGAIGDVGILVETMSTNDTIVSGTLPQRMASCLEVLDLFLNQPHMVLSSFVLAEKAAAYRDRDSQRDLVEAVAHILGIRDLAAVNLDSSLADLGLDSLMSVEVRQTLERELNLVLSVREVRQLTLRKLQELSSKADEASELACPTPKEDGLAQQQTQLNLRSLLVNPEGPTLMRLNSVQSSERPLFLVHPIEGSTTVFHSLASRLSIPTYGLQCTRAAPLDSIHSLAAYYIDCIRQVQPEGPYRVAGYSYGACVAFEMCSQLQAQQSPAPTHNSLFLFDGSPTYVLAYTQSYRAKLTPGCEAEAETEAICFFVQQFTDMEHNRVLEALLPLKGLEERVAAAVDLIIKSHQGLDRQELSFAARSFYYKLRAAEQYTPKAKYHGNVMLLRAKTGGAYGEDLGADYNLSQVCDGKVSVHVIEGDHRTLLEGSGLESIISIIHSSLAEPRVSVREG
row,SMILES,IC50
1,"O=C(C1CC1)N1CCC(C(F)c2ccc(-c3cnc4ccccc4c3)cc2)CC1 (stereo not shown) [Example 7, Cyclopropyl-{4-[fluoro-(4-quinolin-3-yl-phenyl)-methyl]-piperidin-1-yl}-methanone]",1 to 99 nM
2,"O=C([C@H]1CCCO1)N1CC=C(Cc2ccc(-c3cnc4ccccc4c3Cl)cc2)CC1 [Example 202, (R)-(4-(4-(4-chloroquinolin-3-yl)benzyl)-3,6-dihydropyridin-1(2H)-yl)(tetrahydrofuran-2-yl)methanone]",1 to 99 nM
3,"CCC(=O)N1CCC(C)(C(=O)c2ccc(-c3cnc4ccccc4c3)cc2)CC1 [Example 56, 1-[4-Methyl-4-(4-quinolin-3-yl-benzoyl)-piperidin-1-yl]-propan-1-one]",100 to 999 nM
4,"CCC(=O)N1CCC(Cc2ccc(-c3cnc4ccccc4c3Cl)cc2)CC1 [Example 19, 1-{4-[4-(4-Chloroquinolin-3-yl)-benzyl]-piperidin-1-yl}-propan-1-one]",1 to 99 nM
5,"CC(C)C(=O)N1CCC(C(=O)c2ccc(-c3ccc4ncccc4c3)cc2)CC1 [Example 109, 2-Methyl-1-[4-(4-quinolin-6-yl-benzoyl)-piperidin-1-yl]-propan-1-one]",1000 to 10000 nM
6,O=C([C@@H]1CCCO1)N1CCC(Cc2ccc(-c3cnc4ccccc4c3)cc2)CC1 [Example 5],1 to 99 nM
7,"CCC(=O)N1CCC(C(C)c2ccc(-c3cnc4ccccc4c3C)cc2)CC1 (stereo not shown) [Example 65, 1-(4-{1-[4-(4-Methylquinolin-3-yl)-phenyl]-ethyl}-piperidin-1-yl)-propan-1-one]",1 to 99 nM
8,"O=C([C@H]1CCCO1)N1CCC(Cc2ccc(-c3cc4ccccc4cn3)cc2)CC1 [Example 28, [4-(4-Isoquinolin-3-yl-benzyl)-piperidin-1-yl]-(R)-tetrahydrofuran-2-yl-methanone]",1 to 99 nM
9,"Cc1c(-c2ccc(CC3=CCN(C(=O)C4CC4)CC3)cc2)ccc2cccnc12 [Example 184, Cyclopropyl(4-(4-(8-methylquinolin-7-yl)benzyl)-3,6-dihydropyridin-1(2H)-yl)methanone]",100 to 999 nM
10,"CCC(=O)N1CCC(C(F)(F)c2ccc(-c3cnc4ccccc4c3)cc2)CC1 [Example 16, 1-{4-[Difluoro-(4-quinolin-3-yl-phenyl)-methyl]-piperidin-1-yl}-propan-1-one]",100 to 999 nM
11,"CC(c1ccc(-c2ccc3cccnc3c2)cc1)C1CCN(C(=O)[C@H]2CCCO2)CC1 (stereo partly drawn) [Example 51, {4-[1-(4-Quinolin-7-yl-phenyl)-ethyl]-piperidin-1-yl}-(R)-tetrahydrofuran-2-yl-methanone]",1 to 99 nM
12,"CCCC(=O)N1CCC(C2(c3ccc(-c4ccc5ncccc5c4)cc3)OCCO2)CC1 [Example 105, 1-{4-[2-(4-Quinolin-6-yl-phenyl)-1,3-dioxolan-2-yl]-piperidin-1-yl}-butan-1-one]",1000 to 10000 nM
13,"CCOC(C)(c1ccc(-c2cnc3ccccc3c2)cc1)C1CCN(C(=O)C2CC2)CC1 (stereo not shown) [Example 207, Cyclopropyl-{4-[1-ethoxy-1-(4-quinolin-3-yl-phenyl)-ethyl]-piperidin-1-yl}-methanone]",100 to 999 nM
14,"CCC(=O)N1CCC(C(C)c2ccc(-c3ccc4cccnc4c3)cc2)CC1 (stereo not shown) [Example 42, 1-{4-[1-(4-Quinolin-7-yl-phenyl)-ethyl]-piperidin-1-yl}-propan-1-one]",1 to 99 nM
15,"CC(C)C(=O)N1CCC(Cc2ccc(-c3cnc4ccccc4c3)cc2)CC1 [Example 2, 2-Methyl-1-[4-(4-quinolin-3-yl-benzyl)-piperidin-1-yl]-propan-1-one]",1 to 99 nM
16,"O=C(C1CC1)N1CCC(Cc2ccc(-c3ccc4cccnc4c3Cl)cc2)CC1 [Example 30, {4-[4-(8-Chloroquinolin-7-yl)-benzyl]-piperidin-1-yl}-cyclopropylmethanone]",1 to 99 nM
17,"O=C(C1CCCO1)N1CCC(F)(Cc2ccc(-c3cnc4ccccc4c3)cc2)CC1 (stereo in doubt) [Example 189, (R)-(4-fluoro-4-(4-(quinolin-3-yl)benzyl)piperidin-1-yl)(tetrahydrofuran-2-yl)methanone]",1 to 99 nM
18,"CC(c1ccc(-c2cnc3ccccc3c2)cc1)C1CCN(C=O)CC1 (stereo not shown) [Example 60, 4-[1-(4-Quinolin-3-yl-phenyl)-ethyl]-piperidine-1-carbaldehyde]",1000 to 10000 nM
19,"Cc1c(-c2ccc(C(C)C3CCN(C(=O)[C@H]4CCCO4)CC3)cc2)cnc2ccccc12 (mixture of isomers) [Example 71, (4-{1-[4-(4-Methylquinolin-3-yl)-phenyl]-ethyl}-piperidin-1-yl)-(R)-tetrahydrofuran-2-yl-methanone]",1 to 99 nM
20,"Cc1c(-c2ccc(C(OCCN3CCCC3)C3CCN(C(=O)[C@H]4CCCO4)CC3)cc2)ccc2cccnc12 (stereo partly drawn) [Example 89, {4-[[4-(8-Methylquinolin-7-yl)-phenyl]-(2-pyrrolidin-1-yl-ethoxy)-methyl]-piperidin-1-yl}-(R)-tetrahydrofuran-2-yl-methanone]",1 to 99 nM

row,SMILES,IC50
1,"CCNC(=O)N1CCC(F)(Cc2ccc(-c3ccc4cccnc4c3C)cc2)CC1 [Example 228, N-ethyl-4-fluoro-4-[[4-(8-methyl-7-quinolyl)phenyl]methyl]piperidine-1-carboxamide]",1 to 99 nM
2,"Cc1c(-c2ccc(CC3CCN(C(=O)[C@H]4CCCO4)CC3)cc2)cnc2ccccc12 [Example 15, {4-[4-(4-Methylquinolin-3-yl)-benzyl]-piperidin-1-yl}-(R)-tetrahydrofuran-2-yl-methanone]",1 to 99 nM
3,"CCC(=O)N1CCC(/C(=N\OC)c2ccc(-c3cnc4ccccc4c3)cc2)CC1 [Example 46, 1-{4-[[(E:Z)-Methoxyimino]-(4-quinolin-3-yl-phenyl)-methyl]-piperidin-1-yl}-propan-1-one]",1 to 99 nM
4,"CCC(=O)N1CCC(F)(Cc2ccc(-c3ccc4cccnc4c3C)cc2)CC1 [Example 185, 1-(4-fluoro-4-(4-(8-methylquinolin-7-yl)benzyl)piperidin-1-yl)propan-1-one]",1 to 99 nM
5,"O=C(C1CC1)N1CCC(F)(Cc2ccc(-c3cncc4ccccc34)cc2)CC1 [Example 177, Cyclopropyl(4-fluoro-4-(4-(isoquinolin-4-yl)benzyl)piperidin-1-yl)methanone]",1 to 99 nM
6,"Cc1c(-c2ccc(CC3(F)CCN(C(=O)[C@H]4CCCO4)CC3)cc2)ccc2cccnc12 [Example 199, (R)-(4-fluoro-4-(4-(8-methylquinolin-7-yl)benzyl)piperidin-1-yl)(tetrahydrofuran-2-yl)methanone]",1 to 99 nM
7,"CC(C)C(=O)N1CCC(C2(c3ccc(-c4ccc5ncccc5c4)cc3)OCCO2)CC1 [Example 102, 2-Methyl-1-{4-[2-(4-quinolin-6-yl-phenyl)-1,3-dioxolan-2-yl]-piperidin-1-yl}-propan-1-one]",1000 to 10000 nM
8,"CCC(=O)N1CCC(Cc2ccc(-c3ccc4cccnc4c3OC)cc2)CC1 [Example 32, 1-{4-[4-(8-Methoxyquinolin-7-yl)-benzyl]-piperidin-1-yl}-propan-1-one]",1 to 99 nM
9,"CCC(=O)N1CCC(F)(Cc2ccc(-c3ccc4occc4c3)cc2)CC1 [Example 169, 1-(4-(4-(benzofuran-5-yl)benzyl)-4-fluoropiperidin-1-yl)propan-1-one]",100 to 999 nM
10,"CCNC(=O)N1CCC(Cc2ccc(-c3ccc4cccnc4c3OC)cc2)CC1 [Example 230, N-ethyl-4-[[4-(8-methoxy-7-quinolyl)phenyl]methyl]piperidine-1-carboxamide]",1 to 99 nM
11,"CCC(=O)N1CCC(C2(c3ccc(-c4ccc5ccncc5c4)cc3)OCCO2)CC1 [Example 116, 1-{4-[2-(4-Isoquinolin-7-yl-phenyl)-1,3-dioxolan-2-yl]-piperidin-1-yl}-propan-1-one]",1000 to 10000 nM
12,"CC(c1ccc(-c2cnc3ccccc3c2)cc1)C1CCN(C(=O)C2CC2)CC1 (stereo not shown) [Example 58, Cyclopropyl-{4-[1-(4-quinolin-3-yl-phenyl)-ethyl]-piperidin-1-yl}-methanone]",1 to 99 nM
13,"CCC(=O)N1CCC(C(O)c2ccc(-c3ccc4cnccc4c3)cc2)CC1 (stereo not shown) [Example 130, 1-{4-[Hydroxy-(4-isoquinolin-6-yl-phenyl)-methyl]-piperidin-1-yl}-propan-1-one]",1 to 99 nM
14,"COc1c(-c2ccc(CC3CCN(C(=O)[C@H]4CCCO4)CC3)cc2)ccc2cccnc12 [Example 34, {4-[4-(8-Methoxyquinolin-7-yl)-benzyl]-piperidin-1-yl}-(R)-tetrahydrofuran-2-yl-methanone]",1 to 99 nM
15,"CCC(=O)N1CCC(C(C)c2ccc(-c3cnc4ccccc4c3)cc2)CC1 (single isomer, unassigned) [Example 68, 1-{4-[1-(4-Quinolin-3-yl-phenyl)-ethyl]-piperidin-1-yl}-propan-1-one]",1 to 99 nM
16,"O=C(N1CCC(C2(c3ccc(-c4ccc5ncccc5c4)cc3)OCCO2)CC1)C(F)(F)F [Example 98, 2,2,2-Trifluoro-1-{4-[2-(4-quinolin-6-yl-phenyl)-1,3-dioxolan-2-yl]-piperidin-1-yl}-ethanone]",1000 to 10000 nM
17,"O=C(C1CC1)N1CCC(Cc2ccc(-c3cnc4ccccc4c3)cc2)CC1 [Example 3, Cyclopropyl-[4-(4-quinolin-3-yl-benzyl)-piperidin-1-yl]-methanone]",1 to 99 nM
18,"CC(c1ccc(-c2cnc3ccccc3c2Cl)cc1)C1CCN(C(=O)C2CC2)CC1 (stereo not shown) [Example 76, (4-{1-[4-(4-Chloroquinolin-3-yl)-phenyl]-ethyl}-piperidin-1-yl)-cyclopropylmethanone]",1 to 99 nM
19,"CCC(=O)N1CCC(C(C)c2ccc(-c3ccc4cccnc4c3Cl)cc2)CC1 (stereo not shown) [Example 72, 1-(4-{1-[4-(8-chloroquinolin-7-yl)-phenyl]-ethyl}-piperidin-1-yl)-propan-1-one]",1 to 99 nM
20,"CCC(=O)N1CC[C@@H](Cc2ccc(-c3cnc4ccccc4c3)cc2)[C@H](O)C1 (relative stereo) [Example 218, 1-[trans-3-Hydroxy-4-(4-quinolin-3-yl-benzyl)-piperidin-1-yl]-propan-1-one]",100 to 999 nM

# Source: patent publication US11878966B2, “Substituted 4-benzyl and 4-benzoyl piperidine derivates” (89BIO LTD, priority 2015, dated 2024)
